According to patent US5232922A, “Imidazole compounds, processes for their preparation, pharmaceuticals based on these compounds and some intermediates” (priority 1990, dated 1993):

Experiments:
[1] = tested on: capillary bed of the skeletal muscle of the rat; assay: Laser-Doppler flow measurement of erythrocyte flux in acutely ischemic skeletal muscle; format: in vivo, rat (male Wistar); settings: during occlusion
Method: Using laser-Doppler flow measurements (LDF), the erythrocyte flux (the number of cells flowing past under the laser beam x their velocity) can be measured in a noninvasive and continuous manner in the capillary bed of the skeletal muscle of the rat (perimed PF2 laser-Doppler flowmeter, Perimed, Sweden). […] The apparatus was set as follows: 12 kHz, gain 10, time constant 1.5 sec, 37° C. The right femoral artery of male Wistar rats having a body weight of 380-430 g was exposed and the skin and the connective tissue was dissected away over a small muscle area (anterior tibia). The probe was placed about 1 mm above this area. […] At this point, the test substances were infused intravenously in aqueous solution (0.03 and 0.6 mg/kg/min). The maximum percentage increase in the erythrocyte flux after administration of substance during the occlusion (see also Okyayuz-Baklouti, I., European J. of Pharmacology, 166: 75-86, 1989) was used as the measuring parameter for the substance activity. […] 3-7 animals were employed per preparation and dose.

[2] = tested on: laser-induced thrombosis in mesenterial arterioles; assay: Inhibition of laser-induced thrombosis in mesenterial arterioles of the rat; format: in vivo, rat (female Sprague-Dawley); settings: Rattus norvegicus, po; 10 mg/kg p.o.; read-out: Percentage change vs control (inhibition of laser-induced thrombosis)
[3] = tested on: acutely ischemic muscle; assay: Contractility in the acutely ischemic muscle; format: in vivo
Method: The contractility in the acutely ischemic muscle was measured in a similar experimental procedure, as described under 1). The muscle, initially normally supplied with blood, was made to contract isometrically by direct electrical stimulation (1.2 Hz, 2.5 mA). The right femoral artery was then occluded for 5 min by means of a clamp. […] The vessel was then reopened and the starting contractility before the first occlusion was attained. During the second occlusion which then followed, the preparations to be tested were administered intravenously in aqueous solution via the jugular vein. 4-8 animals were employed per preparation and dose. The decrease in the contractility during occlusion with and without substance administration was compared and the percentage change was used to evaluate the substance activity. The substances according to the invention, for example the compound of Example 7, were also remarkable in this test for outstanding effects.

[4] = Acute toxicity (LD50 range); settings: mouse, in vivo, iv, single administration, NMRI mice, 7 days
Method: The determination of the LD50 ranges was carried out in standard fashion by means of the mortality occurring in the course of 7 days in NMRI mice after single intravenous (i.v.) or intraperitoneal (i.p.) administration (NMRI=NIH Medical Research Institute).

[5] = tested on: laser-induced thrombosis; assay: Inhibition of laser-induced thrombosis in hyperlipidemic, spontaneously hypertensive, stroke-prone rats; format: in vivo, rat (hyperlipidemic hypertensive)
[6] = tested on: photochemically-induced thrombosis in mesenterial arterioles; assay: Inhibition of photochemically-induced thrombosis in mesenterial arterioles; format: in vivo, rat
Method: In this model, rats were anesthetized as described above under 2). The investigations were carried out on mesenterial arterioles having a diameter of 11 to 50 lm. A thrombosis was induced in a modification in accordance with a method known from the literature (Herrmann, K. H. Microvasc. Res. 26, 238-249, 1983) and is based on the photochemical release of singlet oxygen, which leads locally to an endothelial lesion. The animals to be investigated received an intravenous injection of 0.3 ml of a 10% strength solution of fluorescein in isothiocyanate--Dextran 70 (FITC--Dextran 70 s, Sigma, Munich). The arterole was looked for under the microscope and centered in the observation field. The FITC--Dextran in the blood vessel was then excited using a special lamp and filter device (excitation 490 nm, emission 510 nm). For evaluation of thrombus formation, the time was taken which extended from the point of excitation to the formation of a first thrombus on the wall. 5 vessels in each animal were examined in this manner.

[7] = tested on: skeletal muscle of the rat (chronic ischemic); assay: Effect on the contractility of the skeletal muscle after chronic ischemia (tiring index); format: in vivo, rat (male Wistar); settings: 6 mg/kg p.o. over 7 days, n = 4-6
From the text: 1) Effect on the Contractility of the Skeletal Muscle After Chronic Ischemia
In recent years, a marked change has taken place in ideas about the pathophysiology of chronic peripheral arterial occlusive disease as scientific interest has to an increasing extent shifted from the macrocirculation to the microcirculation. Disturbances in the microcirculation therefore manifest themselves in an undersupply of substrates with tissue ischemia resulting therefrom which, in turn, leads to an impairment in the function of the extremity concerned. The logical consequence of this is that the target organ skeletal muscle comes more and more into the forefront. […] The clinical activity is in fact also consistently determined in humans with the aid of the painless walking distance on the moving walkway.
Male Wistar rats having a body weight of 380 to 410 g were used as experimental animals. Under hexobarbital anesthesia (®Evipan--sodium, 200 mg/kg BW (=body weight) i.p.), a unilateral ligature of the right femoral artery was applied to the animals in the groin. After sprinkling penicillin sulfonamide powder for antibiotic wound care, the small operation wound was closed and the animals were continuously observed until they were completely awake. One week later, the administration of substance began by oral administration using a stomach tube (6 mg/kg BW, carboxymethylcellulose-sodium suspension) and was continued for 7 days (single administration per day, about 7h30 to 8h30). The contractility was measured 24 h after the last administration of substance in order to exclude acute effects, to be precise by the following experimental protocol:
Superfusion with physiological saline solution (37° C.) was used to avoid drying out and cooling. The mean arterial blood pressure was recorded continuously via Statham (=blood pressure measuring device) by means of a cannulated caroted artery to control the physiological status of the animals during the experiment. All animals breathed spontaneously by means of an inserted tracheal tube.
After these preparations, the muscle was made to contract (Stimulator I, Hugo Sachs, Federal Republic of Germany) by direct electrical stimulation (2.5 mA, 2 Hz). The absolute contractility in grams at various times of stimulation was used as the measured parameter. […] If the maximum contractility at the start of stimulation is now divided by the residual force remaining after 5 minutes' tiring stimulation, a "tiring index TI" for the muscle concerned can be calculated; the ability to tire here is larger the larger TI is numerically.
4 to 6 individual experiments were carried out for each test preparation.

[8] = tested on: laser-induced thrombosis; assay: Inhibition of laser-induced thrombosis in atherosclerotic rabbits; format: in vivo, rabbit (atherosclerotic); settings: 30 mg/kg daily for 14 days

Cn1cnc(S(=O)(=O)NCCCN2CCOCC2)c1 [Example 7, N-(3-Morpholinopropyl)-1-methyl-4-imidazolesulfonamide]
maximum percentage increase in the erythrocyte flux ([1]; 0.03 mg/kg/min i.v. infusion): +53.3% | maximum percentage increase in the erythrocyte flux ([1]; 0.6 mg/kg/min i.v. infusion): +80.6% | inhibition in vivo at 10 mg/kg [2]: 36% | improvement of contractility in the acutely ischemic muscle ([3]; 0.03 mg/kg/min i.v.): +17.2% | improvement of contractility in the acutely ischemic muscle ([3]; 0.3 mg/kg/min i.v.): +25.2% | LD50 at 168 h [4]: > 100 mg/kg | inhibition of laser-induced thrombosis ([5]; 10 mg/kg daily for 7 days): 18% | inhibition of laser-induced thrombosis ([5]; 30 mg/kg daily for 7 days): 32% | inhibition of photochemically-induced thrombosis ([6]; 1 mg/kg p.o.): 69% | inhibition of photochemically-induced thrombosis ([6]; 3 mg/kg i.v.): 36% | inhibition of photochemically-induced thrombosis ([6]; 3 mg/kg p.o.): 75% | inhibition of photochemically-induced thrombosis ([6]; 10 mg/kg i.v.): 56% | inhibition of photochemically-induced thrombosis ([6]; 10 mg/kg p.o.): 130% | inhibition of photochemically-induced thrombosis (in words) ([6]; rat, in vivo): inhibited in a dose-dependent and statistically significant manner | TI of ischemic treated muscle ([7]; tiring index = maximum contractility / residual force after 5 min stimulation): 2.79 | change in vivo at 6 mg/kg ([7]; Rattus norvegicus, po, 168 h, smaller value = more effective, read-out: Percentage change (TI of ischemic treated muscle vs TI of normal non-treated muscle)): 0.3% | inhibition of laser-induced thrombosis [8]: 36%
